Assay results: patent publication US20100041089A1, “IMPROVED METHOD FOR DETECTING CHEMICAL […]” (priority 2006, published 2010)

Tested on: yeast genes (expressed mRNA)
Assay: DNA chip measurement of expressed mRNA of yeast genes after culture with a toxic chemical substance
Assay type: cell-based, Saccharomyces cerevisiae S288C
Settings: for level of expressed mRNA in the presence of chemical substance / level in the absence of chemical substance: cultured two hours with the chemical substance; for The level of expressed mRNA in the presence of chemical substance/The level of expressed mRNA in the absence of chemical substance: cultured two hours with substance
Method: Yeast (Saccharomyces cerevisiae S288C (a SUC2mal mel gap2 CUP1)) were cultured at 25° C. on YPD medium (yeast extract 1%, polypeptone 2%, glucose 2%). One of toxic chemical substances was added to the cell at logarithmic growth phase, and the cell was further cultured for two hours. Cell was cultured without any chemical substance in the same condition, and was used as a control. Concentrations of the chemical substances were defined to inhibit the growth of the yeast but not lead to death.
After the completion of cultivation, the culture was centrifuged to collect the cells. To the cells, sodium acetate buffer (50 mM sodium acetate, 10 mM EDTA, 1% SDS) was added, and the mixture was shaken at 65° C. for five minutes, followed by returning to room temperature, and obtaining the supernatant, which procedure was repeated two times. To the supernatant, ½ amount of a solution of phenol/chloroform (1:1) was added, and the mixture was centrifuged to give a supernatant, an equal amount of chloroform was added, and the mixture was centrifuged to give a supernatant. To the supernatant, an equal amount of isopropanol containing 0.3 M sodium acetate was added, and the mixture was allowed to stand at room temperature for 30 minutes, after which the mixture was centrifuged to give sediment of the whole RNAs. Seventy % ethanol was added to the sediment, and the mixture was again centrifuged to give sediment, which was then dried and dissolved in water. mRNA was isolated from the whole RNAs as followings. In view of the fact that a poly A chain is attached to the 3′ terminus of mRNA, a polynucleotide having a poly T structure which was immobilized on the surface of latex beads was used to trap the mRNA, and then the mRNA was washed and eluted with spine column (Oligotex-dT30<Super>mRNA Purification Kit, Takara). Reverse transcription of the mRNA was conducted with a reverse transcriptase (Super Script II Reverse Transcriptase; catalogue No. 18064-014, GibcoBRL) using fluorescence-labeled nucleotides to give cDNAs that were introduced with Cy3-dUTP or Cy5-dUTP during the reverse transcription.
The labeled cDNAs were dissolved in TE buffer (10 mM Tris-HCl/1 mM EDTA, pH 8.0), and the solution was dropped on the DNA chip containing the whole genes of yeast (DNA Chip Research Inc. Japan) so that the cDNAs were hybridized on the DNA chip at 65° C. for over 12 hours. The fluoresces intensity of the DNA chip was read with a scanner, and the ratio relative to the fluorescence intensity resulting from the absence of chemical substance was estimated as the following, which is shown in Tables 1 to 9.
In the Tables, “Intensity” indicated in the rightmost column is a value of the level of expressed mRNA of each gene in control cells as divided by the average level of the expressions of the whole genes. A gene of which mRNA level is lower in control, and is higher in cases of addition of chemical substance, is especially useful in the detection of toxic substances.
Here, when a ratio of an amount of mRNA expressed in the presence of the chemical substance to an amount of mRNA expressed in the absence of the chemical substance is two or more, then it is considered significant.

Compound: [Cl][Hg][Cl] [(3), HgCl2]
- level of expressed mRNA in the presence of chemical substance / level in the absence of chemical substance (yeast gene YJL097W): 3.7
- The level of expressed mRNA in the presence of chemical substance/The level of expressed mRNA in the absence of chemical substance (yeast gene YJL151C): 3.2
- The level of expressed mRNA in the presence of chemical substance/The level of expressed mRNA in the absence of chemical substance (yeast gene YJL152W): 1.8
- The level of expressed mRNA in the presence of chemical substance/The level of expressed mRNA in the absence of chemical substance (yeast gene YJL161W): 1.5
- The level of expressed mRNA in the presence of chemical substance/The level of expressed mRNA in the absence of chemical substance (yeast gene YJL171C): 2.8
- The level of expressed mRNA in the presence of chemical substance/The level of expressed mRNA in the absence of chemical substance (yeast gene YJR008W): 1.2
- level of expressed mRNA in the presence of chemical substance / level in the absence of chemical substance (yeast gene YJR030C): 0.9
- The level of expressed mRNA in the presence of chemical substance/The level of expressed mRNA in the absence of chemical substance (yeast gene YJR054W): 0.3
- level of expressed mRNA in the presence of chemical substance / level in the absence of chemical substance (yeast gene YKL051W): 4.7
- The level of expressed mRNA in the presence of chemical substance/The level of expressed mRNA in the absence of chemical substance (yeast gene YKL071W): 5.4
- The level of expressed mRNA in the presence of chemical substance/The level of expressed mRNA in the absence of chemical substance (yeast gene YKL086W): 2.4
- level of expressed mRNA in the presence of chemical substance / level in the absence of chemical substance (yeast gene YKL097C): 0.6
- level of expressed mRNA in the presence of chemical substance / level in the absence of chemical substance (yeast gene YKL100C): 5.0
- The level of expressed mRNA in the presence of chemical substance/The level of expressed mRNA in the absence of chemical substance (yeast gene YKL151C): 1.7
- The level of expressed mRNA in the presence of chemical substance/The level of expressed mRNA in the absence of chemical substance (yeast gene YKL153W): 2.0
- The level of expressed mRNA in the presence of chemical substance/The level of expressed mRNA in the absence of chemical substance (yeast gene YKL195W): 0.4
- level of expressed mRNA in the presence of chemical substance / level in the absence of chemical substance (yeast gene YKR040C): 2.4
- The level of expressed mRNA in the presence of chemical substance/The level of expressed mRNA in the absence of chemical substance (yeast gene YKR091W): 0.9
- The level of expressed mRNA in the presence of chemical substance/The level of expressed mRNA in the absence of chemical substance (yeast gene YLR054C): 0.4
- The level of expressed mRNA in the presence of chemical substance/The level of expressed mRNA in the absence of chemical substance (yeast gene YLR149C): 3.4
- The level of expressed mRNA in the presence of chemical substance/The level of expressed mRNA in the absence of chemical substance (yeast gene YLR152C): 1.1
- The level of expressed mRNA in the presence of chemical substance/The level of expressed mRNA in the absence of chemical substance (yeast gene YLR194C): 1.3
- level of expressed mRNA in the presence of chemical substance / level in the absence of chemical substance (yeast gene YLR226W): 0.3
- The level of expressed mRNA in the presence of chemical substance/The level of expressed mRNA in the absence of chemical substance (yeast gene YLR324W): 0.9
- level of expressed mRNA in the presence of chemical substance / level in the absence of chemical substance (yeast gene YLR338W): 1.4
- The level of expressed mRNA in the presence of chemical substance/The level of expressed mRNA in the absence of chemical substance (yeast gene YLR350W): 3.2
- The level of expressed mRNA in the presence of chemical substance/The level of expressed mRNA in the absence of chemical substance (yeast gene YLR387C): 0.8
- level of expressed mRNA in the presence of chemical substance / level in the absence of chemical substance (yeast gene YLR392C): 0.8
- level of expressed mRNA in the presence of chemical substance / level in the absence of chemical substance (yeast gene YLR415C): 6.7
- level of expressed mRNA in the presence of chemical substance / level in the absence of chemical substance (yeast gene YLR427W): 0.2
- The level of expressed mRNA in the presence of chemical substance/The level of expressed mRNA in the absence of chemical substance (yeast gene YLR460C): 2.0
- level of expressed mRNA in the presence of chemical substance / level in the absence of chemical substance (yeast gene YML013W): 0.4
- level of expressed mRNA in the presence of chemical substance / level in the absence of chemical substance (yeast gene YML029W): 1.3
- level of expressed mRNA in the presence of chemical substance / level in the absence of chemical substance (yeast gene YML041C): 0.6
- level of expressed mRNA in the presence of chemical substance / level in the absence of chemical substance (yeast gene YML079W): 1.1
- The level of expressed mRNA in the presence of chemical substance/The level of expressed mRNA in the absence of chemical substance (yeast gene YML117W): 0.9
- The level of expressed mRNA in the presence of chemical substance/The level of expressed mRNA in the absence of chemical substance (yeast gene YMR009W): 0.5
- The level of expressed mRNA in the presence of chemical substance/The level of expressed mRNA in the absence of chemical substance (yeast gene YMR067C): 1.1
- level of expressed mRNA in the presence of chemical substance / level in the absence of chemical substance (yeast gene YMR068W): 0.8
- level of expressed mRNA in the presence of chemical substance / level in the absence of chemical substance (yeast gene YMR071C): 1.1
- The level of expressed mRNA in the presence of chemical substance/The level of expressed mRNA in the absence of chemical substance (yeast gene YMR090W): 2.3
- The level of expressed mRNA in the presence of chemical substance/The level of expressed mRNA in the absence of chemical substance (yeast gene YMR095C): 1.6
- The level of expressed mRNA in the presence of chemical substance/The level of expressed mRNA in the absence of chemical substance (yeast gene YMR097C): 0.7
- The level of expressed mRNA in the presence of chemical substance/The level of expressed mRNA in the absence of chemical substance (yeast gene YMR102C): 1.1
- The level of expressed mRNA in the presence of chemical substance/The level of expressed mRNA in the absence of chemical substance (yeast gene YMR107W): 1.7
- level of expressed mRNA in the presence of chemical substance / level in the absence of chemical substance (yeast gene YMR160W): 1.2
- The level of expressed mRNA in the presence of chemical substance/The level of expressed mRNA in the absence of chemical substance (yeast gene YMR180C): 1.0
- The level of expressed mRNA in the presence of chemical substance/The level of expressed mRNA in the absence of chemical substance (yeast gene YMR184W): 1.0
- The level of expressed mRNA in the presence of chemical substance/The level of expressed mRNA in the absence of chemical substance (yeast gene YMR191W): 1.9
- The level of expressed mRNA in the presence of chemical substance/The level of expressed mRNA in the absence of chemical substance (yeast gene YMR295C): 1.2
- The level of expressed mRNA in the presence of chemical substance/The level of expressed mRNA in the absence of chemical substance (yeast gene YMR316W): 1.1
- level of expressed mRNA in the presence of chemical substance / level in the absence of chemical substance (yeast gene YNL026W): 1.3
- The level of expressed mRNA in the presence of chemical substance/The level of expressed mRNA in the absence of chemical substance (yeast gene YNL044W): 2.3
